From ChEMBL document CHEMBL1147799, “An integrated in silico 3D model-driven discovery of a novel, potent, and selective amidosulfonamide 5-HT1A agonist (PRX-00023) for the treatment of anxiety and depression” (J Med Chem, 2006) come the findings set out here.

The source made the active and inactive calls. The calls are words filed in the database; no cut-off is given here. Bounds are passed on as bounds.

A short description of data set [1]: Binding affinity to galanin receptor by radioligand binding assay.
For data set [2], the target named is Dopamine receptor. Kind of data set: Binding affinity to dopamine receptor by radioligand binding assay. The class given is protein assay.
Data set [3] addresses Cholecystokinin receptor (Homo sapiens, UniProt P32239+P32238). The data set can be described thus: Binding affinity to cholecystokinin receptor by radioligand binding assay. Type of data set: protein assay.
Data set [4] concerns the target Cytochrome P450 2D6 (Homo sapiens, UniProt P10635). The data set can be described thus: Inhibition of human recombinant cytochrome P450 2D6. Type of data set: ADME. The settings on record: recombinant enzyme.
Data set [5] concerns the target GABA-A receptor; anion channel. Kind of data set: Binding affinity to GABA receptor by radioligand binding assay. The class given is protein-complex assay.
The target in data set [6] is hERG (KCNH2) (Homo sapiens, UniProt Q12809). The data set can be described thus: Inhibition of hERG potassium channel in HEK293 cells by patch clamp assay at 1 uM. The settings on record: HEK293 cells that express hERG.
Chain of hERG (KCNH2) (Q12809 whole entry): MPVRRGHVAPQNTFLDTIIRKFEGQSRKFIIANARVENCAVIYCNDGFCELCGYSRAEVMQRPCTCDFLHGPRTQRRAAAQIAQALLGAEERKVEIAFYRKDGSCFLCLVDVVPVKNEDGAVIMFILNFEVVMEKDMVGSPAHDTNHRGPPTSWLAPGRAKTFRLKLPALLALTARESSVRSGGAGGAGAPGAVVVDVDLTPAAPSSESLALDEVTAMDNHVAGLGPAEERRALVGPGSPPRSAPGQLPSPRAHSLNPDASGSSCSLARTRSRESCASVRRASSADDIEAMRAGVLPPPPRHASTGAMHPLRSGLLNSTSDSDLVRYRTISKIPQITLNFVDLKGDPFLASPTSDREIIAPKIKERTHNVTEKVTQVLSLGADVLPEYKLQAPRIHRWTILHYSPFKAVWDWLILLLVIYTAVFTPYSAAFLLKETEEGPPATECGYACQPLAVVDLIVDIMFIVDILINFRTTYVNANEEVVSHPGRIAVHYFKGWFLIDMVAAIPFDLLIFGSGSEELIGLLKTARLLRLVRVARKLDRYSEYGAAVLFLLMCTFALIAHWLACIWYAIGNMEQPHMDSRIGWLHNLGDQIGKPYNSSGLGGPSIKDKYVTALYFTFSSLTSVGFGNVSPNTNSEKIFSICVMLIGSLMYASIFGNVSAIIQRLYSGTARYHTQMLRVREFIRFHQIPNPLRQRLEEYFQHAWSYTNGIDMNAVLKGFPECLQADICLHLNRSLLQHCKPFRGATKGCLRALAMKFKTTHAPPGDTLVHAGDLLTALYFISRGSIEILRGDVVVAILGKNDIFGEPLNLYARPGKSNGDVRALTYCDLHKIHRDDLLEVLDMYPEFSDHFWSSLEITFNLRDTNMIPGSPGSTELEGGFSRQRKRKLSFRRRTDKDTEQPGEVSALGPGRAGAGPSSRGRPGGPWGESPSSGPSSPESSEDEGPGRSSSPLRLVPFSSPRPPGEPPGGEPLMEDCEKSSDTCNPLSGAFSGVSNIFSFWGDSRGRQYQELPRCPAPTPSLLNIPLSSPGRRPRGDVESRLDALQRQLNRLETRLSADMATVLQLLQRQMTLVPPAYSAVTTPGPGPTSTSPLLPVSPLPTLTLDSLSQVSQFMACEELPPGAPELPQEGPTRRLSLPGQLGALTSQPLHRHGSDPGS
Data set [7] in a line: Toxicity in po dosed Beagle dog. Type of data set: organism-based, Canis lupus familiaris. The settings on record: in vivo.
Data set [8] is described as follows: Binding affinity to adrenergic alpha receptor by radioligand binding assay.
Data set [9] addresses 5-hydroxytryptamine receptor 6 (Homo sapiens, UniProt P50406). Kind of data set: Binding affinity to human 5HT6 receptor by radioligand binding assay.
In data set [10] the target is T1, Alpha-2A adrenergic receptor (Rattus norvegicus) (UniProt P22909).
T1 sequence (whole entry): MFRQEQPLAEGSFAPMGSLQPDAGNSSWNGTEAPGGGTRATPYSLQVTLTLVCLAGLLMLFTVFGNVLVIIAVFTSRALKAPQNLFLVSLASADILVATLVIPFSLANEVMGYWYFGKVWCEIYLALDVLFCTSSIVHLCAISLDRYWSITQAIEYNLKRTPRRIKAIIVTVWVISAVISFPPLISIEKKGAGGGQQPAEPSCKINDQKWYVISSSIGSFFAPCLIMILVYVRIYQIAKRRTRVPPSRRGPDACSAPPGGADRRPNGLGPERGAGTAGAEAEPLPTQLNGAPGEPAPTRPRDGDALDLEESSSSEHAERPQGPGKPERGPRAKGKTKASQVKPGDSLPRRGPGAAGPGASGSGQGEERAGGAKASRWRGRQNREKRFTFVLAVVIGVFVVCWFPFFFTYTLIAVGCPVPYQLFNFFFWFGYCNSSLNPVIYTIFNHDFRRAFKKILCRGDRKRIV
Kind of data set: Displacement of [3H]RX 821002 from Adrenergic alpha-2a receptor in rat cerebral cortex cells at 1 uM. Type of data set: cell-based.

Data set [11] deals with 5-hydroxytryptamine receptor 5A (Homo sapiens, UniProt P47898). Kind of data set: Binding affinity to human 5HT5A receptor by radioligand binding assay.
Chain of 5-hydroxytryptamine receptor 5A (P47898 whole entry): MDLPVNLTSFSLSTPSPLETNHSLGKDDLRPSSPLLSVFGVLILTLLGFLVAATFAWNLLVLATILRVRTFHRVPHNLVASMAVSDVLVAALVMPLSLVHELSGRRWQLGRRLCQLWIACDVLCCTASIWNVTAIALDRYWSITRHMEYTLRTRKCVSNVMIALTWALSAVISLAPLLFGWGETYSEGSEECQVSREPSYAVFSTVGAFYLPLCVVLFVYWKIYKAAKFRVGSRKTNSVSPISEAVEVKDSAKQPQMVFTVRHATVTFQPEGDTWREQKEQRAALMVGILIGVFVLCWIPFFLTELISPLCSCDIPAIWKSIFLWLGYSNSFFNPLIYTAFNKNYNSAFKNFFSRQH
Data set [12] is described as follows: Oral bioavailability in Sprague-Dawley rat at 3 mg/kg, po and 1 mg/kg, iv. Particulars: in vivo. Type of data set: ADME, organism-based.
A short description of data set [13]: Binding affinity to vasoactive intestinal peptide receptor by radioligand binding assay.
In data set [14] the test system is Mus musculus. The data set can be described thus: Decrease in basal rectal temperature in stress-induced hyperthermic 129S6/SvEvTac mouse at 20 mg/kg, po. The class given is functional, organism-based. Also on record: dose 20 mg/kg.
Data set [15] in a line: Binding affinity to histamine receptor by radioligand binding assay.
Data set [16] in a line: Half life in Sprague-Dawley rat at 3 mg/kg, po. The class given is ADME, organism-based. More on the design: dose 3 mg/kg, route oral. The settings on record: in vivo.
Data set [17] can be described thus: Binding affinity to neuropeptide receptor by radioligand binding assay.

Chain of Cytochrome P450 2D6 (P10635 whole entry): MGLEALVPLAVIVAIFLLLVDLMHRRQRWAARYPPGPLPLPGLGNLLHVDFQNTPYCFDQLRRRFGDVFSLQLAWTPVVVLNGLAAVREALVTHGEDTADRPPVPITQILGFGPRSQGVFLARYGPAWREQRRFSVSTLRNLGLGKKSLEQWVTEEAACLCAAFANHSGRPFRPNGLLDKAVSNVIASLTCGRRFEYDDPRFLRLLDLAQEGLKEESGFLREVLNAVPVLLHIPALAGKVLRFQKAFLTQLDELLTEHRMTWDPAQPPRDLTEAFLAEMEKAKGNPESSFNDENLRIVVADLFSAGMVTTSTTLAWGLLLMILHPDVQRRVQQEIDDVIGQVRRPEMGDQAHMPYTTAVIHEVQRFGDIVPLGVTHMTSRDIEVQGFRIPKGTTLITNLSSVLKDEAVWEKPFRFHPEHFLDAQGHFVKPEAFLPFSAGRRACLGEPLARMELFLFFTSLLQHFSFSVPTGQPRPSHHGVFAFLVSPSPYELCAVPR
Chain of 5-hydroxytryptamine receptor 6 (P50406 whole entry): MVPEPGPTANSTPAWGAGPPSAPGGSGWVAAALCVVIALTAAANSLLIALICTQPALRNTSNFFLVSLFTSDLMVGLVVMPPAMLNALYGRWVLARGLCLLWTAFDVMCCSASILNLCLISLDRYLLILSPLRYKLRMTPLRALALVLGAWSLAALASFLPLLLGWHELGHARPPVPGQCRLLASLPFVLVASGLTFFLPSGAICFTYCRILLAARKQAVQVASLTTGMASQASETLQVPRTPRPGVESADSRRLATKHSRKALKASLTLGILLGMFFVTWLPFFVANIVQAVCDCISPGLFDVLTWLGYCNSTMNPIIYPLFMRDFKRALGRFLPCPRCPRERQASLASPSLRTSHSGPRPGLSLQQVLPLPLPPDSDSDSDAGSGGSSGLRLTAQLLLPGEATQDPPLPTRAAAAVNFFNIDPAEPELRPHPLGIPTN

For the compound `CC(=O)Nc1cccc(N2CCN(CCCCNS(=O)(=O)CC3CCCCC3)CC2)c1` [NALUZOTAN], the Ki in [1] was over 2 µM; in data set [2], over 2 µM; in data set [3], over 2 µM; in data set [5], over 2 µM; in data set [8] it was over 2 µM; in data set [9], over 5 µM. Further, the Ki in data set [11] was over 5 µM; in data set [13], over 2 µM; in [15], over 2 µM; in data set [17] it was over 2 µM. The Inhibition entry in data set [4] was “Not Active”. The same compound showed an inhibition at 1 µM in [6] of 21%. Besides, the MTD in data set [7] stood at 600 mg/kg. This compound also had an Activity in data set [10] of 0%. For the same compound, in [12], the bioavailability is 11%. Also, the result in data set [14] was Active. The compound also gave a half-life in [16] of 2 h.
